Source: patent US8921563B2, “1-[(4-hydroxypiperidin-4-yl)methyl]pyridin-2(1H)-one derivatives, preparation methods and uses thereof” (Institue of Pharmacology and Toxicology Academy of Military …, priority 2010, dated 2014)

What was measured:
5-HT1A receptor = target: T1, 5-HT1A receptor (Rattus norvegicus, UniProt P19327); assay: Screening: competitive binding test to 5-HT1A receptor using [3H]-8-OH-DPAT, rat hippocampi membrane protein; details: [3H]-8-OH-DPAT 1.28 nM, read-out: Inhibition percent (I %), competitive binding to 5-HT1A receptor
T1 construct: the content of 5-HT1A receptor extracted from rat hippocampi was 5.5 mg/ml; from tissue; host or cells: Wistar rat hippocampus, membrane preparation
T1 sequence (P19327 1-422): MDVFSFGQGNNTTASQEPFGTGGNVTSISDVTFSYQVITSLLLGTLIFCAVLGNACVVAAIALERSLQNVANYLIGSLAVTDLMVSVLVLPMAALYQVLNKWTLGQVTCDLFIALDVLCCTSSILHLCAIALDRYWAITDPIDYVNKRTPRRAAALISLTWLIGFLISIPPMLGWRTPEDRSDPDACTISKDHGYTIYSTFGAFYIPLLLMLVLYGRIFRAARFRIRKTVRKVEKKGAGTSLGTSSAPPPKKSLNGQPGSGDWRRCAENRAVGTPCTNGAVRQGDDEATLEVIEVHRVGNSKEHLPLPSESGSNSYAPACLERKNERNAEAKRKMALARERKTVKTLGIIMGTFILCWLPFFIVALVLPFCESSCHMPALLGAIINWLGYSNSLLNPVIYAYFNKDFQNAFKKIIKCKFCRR
Procedure: 1.4.1 Screening of YL Series Compounds
(1) Preparation of Membrane Proteins in Rat Hippocampi
Wister rats, 220-260 g, female and male, were sacrificed by decapitation and hippocampis were rapidly separated, weighed and to which homogenized in 10 times volume of Tris-HCl buffer solution (50 mM Tris-HCl, 5 mM MgCl2,1 mM EDTA, 0.5% (WN) BSA, 1 mM PMSF, 3 μg/ml proteinase inhibitor, 0.1% NaN3, 0.32M sucrose, pH 7.4) at 15,000 rpm for 30 s, total 5 times. The homogenate was centrifuged under 1000×g for 10 minutes and the supernatant was then centrifuged under 39000×g for 10 minutes. The precipitate was collected, and resuspended with 10 times volume of Tris-HCl buffer solution (pH 7.4) relative to the original weight, then centrifuged under 39000×g for 10 minutes. The precipitate was washed with the same buffer solution, centrifuged under 39000×g for 10 minutes and the precipitate was suspended with the above buffer solution. After sub-packaged (the whole operation procedures were performed under ice bath), the product was stored at −80° C. The protein concentration was measured by Lowrry method.
1) In the 5-HT1A receptor binding test, tubes are firstly placed under reaction condition of 25° C.
2) To all of the tubes, the receptor proteins extracted from rat hippocampi in an amount of 100 μg were added in sequence.
4) To the test tubes, 30 μl of the compound in corresponding concentrations (used for screening: 10^−5, 10^−7, 10^−9M) was added in sequence.
6) Tris-HCl buffer solution (50 mM Tris-HCl, 1 mM EDTA, 5 mM MgCl2, 0.1 mM PMSF, 0.1% NaN3, pH 7.4) was supplied to all of the tubes to reach a volume of 300 μl.
7) The reaction was performed at 25° C. for 1 h.
8) Then samples were applied to 49-type glass fibre filter, vacuum suction filtered, then washed three times with 2 ml ice-cold Tris-HCl buffer solution (50 mM Tris-HCl buffer solution, 1 mM EDTA, 5 mM MgCl2, 1 mM PMSF, 0.1% NaN3, 3 μg/ml proteinase inhibitor, pH 7.4). […] The radio-activity was measured by a scintillation counter.

[1] = target: T2, 5-HT transport protein (SERT) (Rattus norvegicus, UniProt P31652); assay: Screening: competitive binding test to SERT using [3H]-citalopram; details: [3H]-citalopram 1 nM, read-out: Inhibition percent (I %), competitive binding to 5-HT transport protein (SERT)
T2 construct: Preparation of Membrane Proteins in Rat Hippocampi; from tissue; host or cells: Wistar rat hippocampus
Procedure: The homogenate was centrifuged under 1000×g for 10 minutes and the supernatant was then centrifuged under 39000×g for 10 minutes. The precipitate was collected, and resuspended with 10 times volume of Tris-HCl buffer solution (pH 7.4) relative to the original weight, then centrifuged under 39000×g for 10 minutes. The precipitate was washed with the same buffer solution, centrifuged under 39000×g for 10 minutes and the precipitate was suspended with the above buffer solution. After sub-packaged (the whole operation procedures were performed under ice bath), the product was stored at −80° C. The protein concentration was measured by Lowrry method.

5-HT reuptake = target: T3, 5-HT reuptake (Rattus norvegicus, UniProt P31652); assay: 5-HT reuptake inhibition in crudely produced rat synaptosomes ([3H]-5-HT); type: biochemical; details: [3H]-5-HT 20.3 nM, read-out: IC50 of 5-HT reuptake inhibition in rat brain
T3 construct: from tissue; host or cells: rat brain (hippocampi and cortex separated; results from cortex), crude synaptosomes
Procedure: (1) Preparation of Synaptosome Protein.
1) Rats were rapidly decapitated and the brains were removed, and hippocampi and cortex were separated on ice.
2) Same brain tissues of 3 rats were combined, to which 10 times volume of ice-bath homogenate was added, and homogenized.
3) The homogenate was centrifuged at 4° C. under 1500 g for 10 minutes and the precipitate was decanted.
4) The supernatant was centrifuged at 4° C. under 12000 g for 15 minutes and the supernatant was decanted, and the precipitate portion was a crudely produced synaptosome.
5) Washed with resuspension buffer twice and centrifuged at 4° C. under 13000 g for 10 minutes and resuspended again.
6) Protein concentration was measured by Lowrry method.
7) The synaptosome was preserved on ice, and the test was completed within 4-6 h.
1) To all tubes, the crudely produced synaptosome protein was added in an amount of 50 μg in sequence.
3) To the test tubes, the drug to be tested in various concentrations in range of 10^−3-10^−10M was added in sequence and reacted for 15 minutes. […]
7) The samples were then applied to 49-type glass fibre filters, vacuum suction filtered, washed 5 times with 10 ml ice-cooled Tris-HCl buffer. […] The radioactive intensity was measured by using LS6500 type liquid scintillation counter.
The calculated inhibition percents were used to calculate IC50 value by using Orgin7.0/GraphPad Prism 4.0 software.

NET = NET (Homo sapiens, UniProt P23975); assay: Preliminary test of NET binding effect of YL-0911; details: 10^-5 and 10^-7 mol/L; NET protein from HEK-293 cell line
Source text: (4) Preliminary Test of NET Binding Effect of YL-0911 and Positive Control Drugs
Two different drug concentrations, 10^−5 and 10^−7 mol/L, were used to determine the binding effect of YL-0911 on NET protein extracted from the HEK-293 cell lines of stably expression NET.

mice [2] = assay: Forced swim test in mice; type: in vivo; details: acute, 1 h before test
Procedure: 2.1.1 Forced Swim Test in Mice
Forced swim test in mice is an acute behavioral despair model established by Porsolt, et al.
(1) Experimental device: a glass cylinder (diameter 13 cm, height 24 cm, containing 10 cm of water maintained at 25).
(2) Experimental method: Male Kunming mice weighing 20-25 g. The mice were gently put in the water 1 h after intragastrically drug administration, and then the duration of immobility in the last 4 min of total 6 min test was recorded.

mice [3] = assay: Novel object recognition test in mice; type: in vivo; details: repeated daily, tested day 8, mice
Procedure: Novel object recognition test is a cognitive behavior model established by Lima, et al.
1) Experimental device: a white Perspex box (60×60×16 cm), two completely identical objects, and one completely different object.
2) Experimental method: Male Kunming mice weighing 20-25 g. The mice were intragastrically administered with YL-0911 or vehicle (distilled water) for 5 days. On day 6, after treatment with YL-0911 or vehicle, each mouse was placed into the Perspex box at the same place for 5 min as habituation. On day 7, the mice were administered YL-0911 or vehicle and then individually placed in the Perspex box at the same place containing two identical objects located in the two diagonal corners for 5 minutes. On day 8, mice were tested for memory using the same procedure as day 7 except that one of the familiar objects was replaced with a novel object.

SERT = SERT (Homo sapiens, UniProt P31645); assay: Competitive binding test of YL-0911 and positive drugs to SERT (hSERT from transfected cell lines)
Chain of SERT (P31645 whole entry): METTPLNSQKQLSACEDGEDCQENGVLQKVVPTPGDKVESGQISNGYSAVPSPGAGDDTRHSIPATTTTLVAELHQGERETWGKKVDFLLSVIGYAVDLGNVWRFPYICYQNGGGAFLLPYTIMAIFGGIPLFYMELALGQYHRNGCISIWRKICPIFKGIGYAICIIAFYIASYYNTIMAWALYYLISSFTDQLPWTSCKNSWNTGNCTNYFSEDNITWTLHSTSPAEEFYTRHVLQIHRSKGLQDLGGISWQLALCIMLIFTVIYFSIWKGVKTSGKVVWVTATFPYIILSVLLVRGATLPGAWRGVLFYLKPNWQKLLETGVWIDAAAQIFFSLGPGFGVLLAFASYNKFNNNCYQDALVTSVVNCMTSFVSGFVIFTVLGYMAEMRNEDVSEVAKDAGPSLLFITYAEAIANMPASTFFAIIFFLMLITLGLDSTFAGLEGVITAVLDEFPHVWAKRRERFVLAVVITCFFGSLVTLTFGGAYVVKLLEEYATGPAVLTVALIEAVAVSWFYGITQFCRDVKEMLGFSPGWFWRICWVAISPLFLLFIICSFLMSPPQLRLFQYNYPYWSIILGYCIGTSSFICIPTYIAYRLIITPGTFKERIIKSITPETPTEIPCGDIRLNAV

T2 sequence (P31652 whole entry): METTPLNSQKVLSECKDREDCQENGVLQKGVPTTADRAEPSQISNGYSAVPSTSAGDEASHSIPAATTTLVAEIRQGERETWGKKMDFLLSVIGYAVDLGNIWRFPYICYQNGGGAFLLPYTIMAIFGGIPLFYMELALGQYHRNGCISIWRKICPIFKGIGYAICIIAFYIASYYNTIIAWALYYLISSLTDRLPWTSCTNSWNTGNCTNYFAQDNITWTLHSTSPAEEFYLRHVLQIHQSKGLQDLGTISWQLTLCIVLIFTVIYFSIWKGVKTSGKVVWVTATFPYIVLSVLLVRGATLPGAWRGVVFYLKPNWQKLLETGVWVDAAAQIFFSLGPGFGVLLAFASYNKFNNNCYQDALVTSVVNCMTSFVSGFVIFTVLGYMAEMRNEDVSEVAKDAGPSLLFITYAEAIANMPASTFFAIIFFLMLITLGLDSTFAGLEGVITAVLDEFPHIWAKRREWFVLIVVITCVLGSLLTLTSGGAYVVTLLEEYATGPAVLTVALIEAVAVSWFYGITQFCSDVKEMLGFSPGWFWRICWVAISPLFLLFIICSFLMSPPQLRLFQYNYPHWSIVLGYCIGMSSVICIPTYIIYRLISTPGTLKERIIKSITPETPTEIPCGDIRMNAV
T3 sequence (P31652 whole entry): as above
Chain of NET (P23975 whole entry): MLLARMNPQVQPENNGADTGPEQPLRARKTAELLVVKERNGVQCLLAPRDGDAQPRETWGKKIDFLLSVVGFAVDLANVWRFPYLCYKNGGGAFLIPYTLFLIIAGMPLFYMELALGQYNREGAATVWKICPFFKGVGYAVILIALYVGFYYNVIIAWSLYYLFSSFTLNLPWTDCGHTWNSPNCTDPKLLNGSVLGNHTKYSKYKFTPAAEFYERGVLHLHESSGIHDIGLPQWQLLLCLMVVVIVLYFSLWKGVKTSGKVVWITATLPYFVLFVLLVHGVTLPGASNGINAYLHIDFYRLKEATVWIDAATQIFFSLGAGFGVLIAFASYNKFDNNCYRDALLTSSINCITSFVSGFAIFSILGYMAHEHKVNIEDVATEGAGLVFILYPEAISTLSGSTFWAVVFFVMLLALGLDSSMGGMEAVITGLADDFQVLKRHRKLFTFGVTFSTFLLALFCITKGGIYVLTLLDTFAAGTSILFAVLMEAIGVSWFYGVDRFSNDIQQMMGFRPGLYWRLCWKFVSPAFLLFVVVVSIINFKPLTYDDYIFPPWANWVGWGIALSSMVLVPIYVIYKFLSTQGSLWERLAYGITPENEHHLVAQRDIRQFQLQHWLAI

- inhibition at 10 µM (5-HT1A receptor; compound 10^-5 mol/L): 100%
- inhibition at 0.1 µM (5-HT1A receptor; compound 10^-7 mol/L): 85%
- inhibition at 10 µM ([1]; compound 10^-5 mol/L): 100%
- inhibition at 0.1 µM ([1]; compound 10^-7 mol/L): 84%
- IC50 (5-HT reuptake): 8.51 ± 0.23 nM
- Ki (SERT): 5.38 ± 0.27 nM
SMILES: O=c1ccccn1CC1(O)CCN(Cc2ccccc2)CC1 [Compound 1, 1-[(1-benzyl-4-hydroxypiperidin-4-yl)-methyl]-pyridin-2(1H)-one]
- affinity to NET (selectivity) (NET): obviously lower than the affinity to SERT and 5-HT1A
- Immobility time (s), forced swim test (mice [2]; 0.625 mg/kg p.o.): 126.1 ± 60.9 s
- Immobility time (s), forced swim test (mice [2]; 1.25 mg/kg p.o.): 72.0 ± 46.5 s
- Immobility time (s), forced swim test (mice [2]; 5 mg/kg p.o.): 149.6 ± 39.1 s
- Recognition index (mice [3]; 0.625 mg/kg p.o.): 59.95 ± 2.74
- Recognition index (mice [3]; 1.25 mg/kg p.o.): 64.76 ± 5.02
